Assay results taken from paper PMC9107566, “Metabolic engineering of Escherichia coli for efficient degradation of 4-fluorophenol” (AMB Express, 2022).

Target: T1, FpdA2 (Arthrobacter sp. IF1, UniProt D1MYT1)
T1 construct: co-expressed with flavin reductase FpdB, FpdC and FpdD; not purified
T1 sequence (D1MYT1 1-535): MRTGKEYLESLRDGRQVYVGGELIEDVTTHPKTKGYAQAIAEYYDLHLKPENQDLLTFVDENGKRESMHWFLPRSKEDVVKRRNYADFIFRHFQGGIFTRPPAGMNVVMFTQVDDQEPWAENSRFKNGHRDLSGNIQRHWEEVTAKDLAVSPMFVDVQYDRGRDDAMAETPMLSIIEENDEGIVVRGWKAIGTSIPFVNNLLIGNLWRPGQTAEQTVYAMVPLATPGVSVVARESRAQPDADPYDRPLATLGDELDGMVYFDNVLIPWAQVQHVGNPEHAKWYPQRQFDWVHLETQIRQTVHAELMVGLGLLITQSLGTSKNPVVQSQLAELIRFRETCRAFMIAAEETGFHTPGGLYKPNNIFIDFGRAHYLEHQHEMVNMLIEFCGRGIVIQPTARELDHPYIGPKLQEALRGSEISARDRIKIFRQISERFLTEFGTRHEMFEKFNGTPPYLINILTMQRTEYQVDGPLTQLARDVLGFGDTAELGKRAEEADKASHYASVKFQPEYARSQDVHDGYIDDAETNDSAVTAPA
Assay: whole-cell degradation by BL-fpd, HPLC of substrate
Type: cell-based
Conditions: 2 mM substrate, 10 uM FAD added, 37 C, 3 h; induced cells co-expressing FpdB, FpdC, FpdD; empty-vector strain BL-control as control

Oc1ccc(Br)cc1 [4-bromophenol]
whole-cell degradation by BL-fpd, HPLC of substrate: FpdA2 showed the highest activity towards 4-bromophenol among the substrates tested
